Experimental data reported in patent US7273846B2, “Selective melanin-concentrating hormone type-1 receptor agonists” (priority 2002, dated 2007).
Where two headings read alike, the source gives them in different places. Residues, ends and D or L forms follow the SMILES beside them.

What was measured:
MCH-1R [1] = biological target: T1, MCH-1R (Homo sapiens, UniProt Q99705); test: Aequorin bioluminescence functional assay, 293AEQ17/MCH-1R cells; format: cell-based; set-up: expressed in transfected cells; conditions: for MCH-1R Activation %: human MCH = 100, activation at 10 μM concentration
T1 sequence (Q99705 whole entry): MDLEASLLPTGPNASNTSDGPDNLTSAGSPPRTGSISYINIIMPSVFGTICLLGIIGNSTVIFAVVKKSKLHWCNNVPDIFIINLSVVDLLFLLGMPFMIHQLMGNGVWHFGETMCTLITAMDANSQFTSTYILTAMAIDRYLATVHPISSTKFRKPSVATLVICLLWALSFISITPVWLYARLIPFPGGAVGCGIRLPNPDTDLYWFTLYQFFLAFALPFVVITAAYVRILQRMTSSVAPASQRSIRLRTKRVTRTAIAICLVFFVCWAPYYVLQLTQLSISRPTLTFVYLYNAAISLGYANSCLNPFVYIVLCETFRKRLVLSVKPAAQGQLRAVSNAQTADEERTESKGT
Description: (§1) The aequorin bioluminescence assay is a reliable test for identifying G-protein-coupled receptors that couple through the G protein subunit family consisting of Gq and G11. Gq and G11 coupling leads to the activation of phospholipase C, mobilization of intracellular calcium, and activation of protein kinase C.
Stable cell lines expressing either the MCH-1R or the MCH-2R and the aequorin reporter protein were used. The assay was performed using a Luminoskan RT luminometer (Labsystems Inc., Gaithersburg, Md.) controlled by custom software written for a Macintosh PowerPC 6100.
(§2) The cells were harvested, washed once in ECB medium, and resuspended to 500,000 cells/mL. 100 μL of cell suspension (corresponding to 5×10^4 cells) was then injected into the test plate containing the hMCH peptides, and the integrated light emission was recorded over 30 seconds, in 0.5-s units. 20 μL of lysis buffer (0.1% final Triton X-100 concentration) was then injected and the integrated light emission recorded over 10 seconds, in 0.5-s units. The “fractional response” values for each well were calculated by taking the ratio of the integrated response to the initial challenge to the total integrated luminescence including the Triton X-100 lysis response.

MCH-1R [2] = biological target: T1, MCH-1R
Description: For transient expression, COS-7 cells were cultured in Dulbecco's modified Eagle medium (Gibco BRL, Rockville, Md.) with 10% heat inactivated fetal calf serum.
A suspension of 7×10^6 COS-7 cells were transfected with 20 μg of pCI-neo/MCH-2R plasmid by electroporation and cells were harvested after 60-72 hours. Membranes were prepared from transient and stable transfectants by hypotonic lysis, frozen in liquid nitrogen, and stored at −80° C.
Assays were optimized with respect to membrane preparations: for CHO/MCH-1R membranes, 1 μg of membranes per well yielded a>6× specific binding window and for COS or CHO MCH-2R membranes, 8 μg of membrane protein yielded a window of about 3×.
Specific binding is defined as the difference between total binding and non-specific binding conducted in the presence of 500 nM unlabeled hMCH. […] After equilibrating at room temperature for 3 hours, the plates were read in a TopCount (Packard, Meriden, Conn.). IC50 calculations were performed using Prism 3.0 (GraphPad. Software, San Diego, Calif.). The IC50 values were measured in three different experiments.

MCH-2R = MCH-2R (Homo sapiens, UniProt Q969V1); test: Aequorin bioluminescence functional assay, 293AEQ17/MCH-2R cells; format: cell-based; set-up: expressed in transfected cells; MCH-2R Activation %: concentration or dose not given beside the values; conditions: for EC50: aequorin, 293AEQ17/MCH-2R cells; for MCH-2R Activation %: human MCH = 100
MCH-2R, sequence (Q969V1 whole entry): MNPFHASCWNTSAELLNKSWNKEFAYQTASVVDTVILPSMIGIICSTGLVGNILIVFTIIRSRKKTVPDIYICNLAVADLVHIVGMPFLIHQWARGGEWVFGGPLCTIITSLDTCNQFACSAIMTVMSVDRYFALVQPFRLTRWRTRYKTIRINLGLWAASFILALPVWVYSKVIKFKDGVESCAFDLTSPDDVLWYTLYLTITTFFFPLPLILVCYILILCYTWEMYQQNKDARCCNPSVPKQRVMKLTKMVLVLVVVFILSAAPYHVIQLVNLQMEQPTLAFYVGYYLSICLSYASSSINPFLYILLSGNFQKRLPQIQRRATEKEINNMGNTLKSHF
Source text: as §1
Stable cell lines expressing either the MCH-1R or the MCH-2R and the aequorin reporter protein were used.
as §2

[3] = aequorin, 293AEQ17/MCH-1R cells, read-out: MCH-1R EC50

SMILES | agonism at hMCH-1R in words (MCH-1R [1]) | MCH-1R Activation % (MCH-1R [1]) [%] | Selectivity 2/1 (MCH-2R/MCH-1R EC50 activity ratio) (MCH-1R [1]) | EC50 (MCH-1R [1]; [3]) [nM] | Selectivity 2/1 (MCH-2R/MCH-1R IC50 binding ratio) (MCH-1R [2]) | fold lower binding affinity for hMCH-1R (MCH-1R [2]; relative to the D-Arg^6 compound) | agonism at hMCH-2R in words (MCH-2R) | EC50 (MCH-2R) [nM] | MCH-2R Activation % (MCH-2R) [%] | EC50 (MCH-1R [1]) [nM] | fold more selective as agonist for hMCH-1R than hMCH-2R (MCH-1R [1]) | fold lower agonist activity at hMCH-1R (MCH-1R [1]; relative to Ac-hMCH(6-16)-NH2) [fold]
CCCC[C@@H]1NC(=O)[C@@H](NC(=O)[C@H](N)CCCNC(=N)N)CSSC[C@@H](C(N)=O)NC(=O)[C@@H]2CCCN2C(=O)[C@H](CCCNC(=N)N)NC(=O)[C@H](Cc2ccc(O)cc2)NC(=O)[C@H](C(C)C)NC(=O)[C@H](CCCNC(=N)N)NC(=O)[C@H](CC(N)=O)NC(=O)[C@H](CC(C)C)NC1=O [SEQ. ID. NO. 32] (HELM PEPTIDE1{[dR].C.[Nle].L.N.R.V.Y.R.P.C.[am]}$PEPTIDE1,PEPTIDE1,2:R3-11:R3$$$V2.0) | potent and selective hMCH-1R agonists | – | – | – | – | – | – | – | – | – | – | –
CSCC[C@@H]1NC(=O)[C@@H](NC(=O)[C@H](CCCNC(=N)N)NC(C)=O)CSSC[C@@H](C(N)=O)NC(=O)[C@@H]2CCCN2C(=O)[C@H](CCCNC(=N)N)NC(=O)[C@H](Cc2ccc(O)cc2)NC(=O)[C@H](C(C)C)NC(=O)[C@H](CCCNC(=N)N)NC(=O)CNC(=O)[C@H](CC(C)C)NC1=O [SEQ. ID. NO. 2, Ac-hMCH(6-16)-NH2, reference compound] | – | 99 | – | – | – | – | – | – | – | – | – | –
CSCC[C@@H]1NC(=O)[C@@H](NC(=O)[C@@H](CCCNC(N)=O)NC(C)=O)CSSC[C@@H](C(N)=O)NC(=O)[C@@H]2CCCN2C(=O)[C@H](CCCNC(=N)N)NC(=O)[C@H](Cc2ccc(O)cc2)NC(=O)[C@H](C(C)C)NC(=O)[C@H](CCCNC(=N)N)NC(=O)CNC(=O)[C@H](CC(C)C)NC1=O [SEQ. ID. NO. 14] | lower than those of the L-Arg^6 compound | 91 | 0.3 | 920 | 43 | about 30 fold | lower than those of the L-Arg^6 compound | 310 | 68 | – | – | –
CSCC[C@@H]1NC(=O)[C@@H](NC(=O)[C@H](CCCNC(=N)N)NC(C)=O)CSSC[C@@H](C(N)=O)NC(=O)[C@@H]2CCCN2C(=O)[C@H](CCCNC(=N)N)NC(=O)[C@H](Cc2ccc(O)cc2)NC(=O)[C@H](C(C)C)NC(=O)[C@H](CCCNC(=N)N)NC(=O)[C@H](CCC(=O)O)NC(=O)[C@H](CC(C)C)NC1=O [SEQ. ID. NO. 28] | practically inactive | 21 | – | – | – | – | practically inactive | – | 22 | > 10000 | – | –
CSCC[C@@H]1NC(=O)[C@@H](NC(=O)[C@H](CCCNC(=N)N)NC(C)=O)CSSC[C@@H](C(N)=O)NC(=O)[C@@H]2CCCN2C(=O)[C@H](CCCNC(=N)N)NC(=O)[C@H](Cc2ccc(O)cc2)NC(=O)[C@H](C(C)C)NC(=O)[C@H](CCCNC(=N)N)NC(=O)[C@H](CC(C)C)NC(=O)[C@H](CC(C)C)NC1=O [SEQ. ID. NO. 17] | – | 123 | 1.8 | – | 1900 | – | – | – | 74 | – | – | –
CSCC[C@@H]1NC(=O)[C@@H](NC(=O)[C@H](CCCNC(=N)N)NC(=O)[C@H](CC(C)C)NC(=O)[C@H](CCSC)NC(=O)[C@H](CC(=O)O)NC(=O)[C@H](Cc2ccccc2)NC(=O)[C@@H](N)CC(=O)O)CSSC[C@@H](C(=O)N[C@@H](Cc2c[nH]c3ccccc23)C(=O)N[C@@H](CCC(N)=O)C(=O)N[C@H](C(=O)O)C(C)C)NC(=O)[C@@H]2CCCN2C(=O)[C@H](CCCNC(=N)N)NC(=O)[C@H](Cc2ccc(O)cc2)NC(=O)[C@H](C(C)C)NC(=O)[C@H](CCCNC(=N)N)NC(=O)CNC(=O)[C@H](CC(C)C)NC1=O [SEQ. ID. NO. 1, human MCH, reference compound] | – | 100 | – | – | – | – | – | – | 100 | – | – | –
CSCC[C@@H]1NC(=O)[C@@H](NC(=O)[C@H](CCCNC(=N)N)NC(C)=O)CSSC[C@@H](C(N)=O)NC(=O)[C@@H]2CCCN2C(=O)[C@H](CCCNC(=N)N)NC(=O)[C@H](Cc2ccc(O)cc2)NC(=O)[C@H](C(C)C)NC(=O)[C@H](CCCNC(=N)N)NC(=O)[C@H](C)NC(=O)[C@H](CC(C)C)NC1=O [SEQ. ID. NO. 16] (HELM PEPTIDE1{[ac].R.C.M.L.A.R.V.Y.R.P.C.[am]}$PEPTIDE1,PEPTIDE1,3:R3-12:R3$$$V2.0) | – | 121 | 0.29 | 51 | 16 | – | – | – | 102 | – | – | –
CSCC[C@@H]1NC(=O)[C@@H](NC(=O)[C@@H](CCCNC(=N)N)NC(C)=O)CSSC[C@@H](C(N)=O)NC(=O)[C@@H]2CCCN2C(=O)[C@H](CCCNC(=N)N)NC(=O)[C@H](Cc2ccc(O)cc2)NC(=O)[C@H](C(C)C)NC(=O)[C@H](CCCNC(=N)N)NC(=O)[C@H](CCC(N)=O)NC(=O)[C@H](CC(C)C)NC1=O [SEQ. ID. NO. 30] (HELM PEPTIDE1{[ac].[dR].C.M.L.Q.R.V.Y.R.P.C.[am]}$PEPTIDE1,PEPTIDE1,3:R3-12:R3$$$V2.0) | activated hMCH-1R almost as efficiently as Ac-hMCH(6-16)NH2 | 74 | – | – | 230 | – | – | > 10000 | 11 | – | about 150 fold | –
CSCC[C@@H]1NC(=O)[C@@H](NC(=O)[C@@H](C)NC(C)=O)CSSC[C@@H](C(N)=O)NC(=O)[C@@H]2CCCN2C(=O)[C@H](CCCNC(=N)N)NC(=O)[C@H](Cc2ccc(O)cc2)NC(=O)[C@H](C(C)C)NC(=O)[C@H](CCCNC(=N)N)NC(=O)CNC(=O)[C@H](CC(C)C)NC1=O [SEQ. ID. NO. 6] | – | 109 | 30 | 160 | 3500 | – | – | – | 51 | – | – | –
CSCC[C@@H]1NC(=O)[C@@H](NC(=O)[C@@H](Cc2ccccc2)NC(C)=O)CSSC[C@@H](C(N)=O)NC(=O)[C@@H]2CCCN2C(=O)[C@H](CCCNC(=N)N)NC(=O)[C@H](Cc2ccc(O)cc2)NC(=O)[C@H](C(C)C)NC(=O)[C@H](CCCNC(=N)N)NC(=O)CNC(=O)[C@H](CC(C)C)NC1=O [SEQ. ID. NO. 9] | – | 117 | 7 | 66 | 1380 | – | – | – | 79 | – | – | –
CSCC[C@@H]1NC(=O)[C@@H](NC(=O)[C@H](CCCNC(=N)N)NC(C)=O)CSSC[C@@H](C(N)=O)NC(=O)[C@@H]2CCCN2C(=O)[C@H](CCCNC(=N)N)NC(=O)[C@H](Cc2ccc(O)cc2)NC(=O)[C@H](C(C)C)NC(=O)[C@H](CCCNC(=N)N)NC(=O)[C@H](CCCNC(=N)N)NC(=O)[C@H](CC(C)C)NC1=O [SEQ. ID. NO. 23] (HELM PEPTIDE1{[ac].R.C.M.L.R.R.V.Y.R.P.C.[am]}$PEPTIDE1,PEPTIDE1,3:R3-12:R3$$$V2.0) | – | 7 | – | > 10000 | 0.7 | – | – | – | 38 | – | – | –
CSCC[C@@H]1NC(=O)[C@@H](NC(=O)[C@H](CCCNC(=N)N)NC(C)=O)CSSC[C@@H](C(N)=O)NC(=O)[C@@H]2CCCN2C(=O)[C@H](CCCNC(=N)N)NC(=O)[C@H](Cc2ccc(O)cc2)NC(=O)[C@H](C(C)C)NC(=O)[C@H](CCCNC(=N)N)NC(=O)[C@H](Cc2ccc3ccccc3c2)NC(=O)[C@H](CC(C)C)NC1=O [SEQ. ID. NO. 21] | – | 7 | – | > 10000 | 14 | – | – | – | 105 | – | – | –
CSCC[C@@H]1NC(=O)[C@@H](NC(=O)[C@@H](CCCNC(=N)N)NC(C)=O)CSSC[C@@H](C(N)=O)NC(=O)[C@@H]2CCCN2C(=O)[C@H](C)NC(=O)[C@H](Cc2ccc(O)cc2)NC(=O)[C@H](C(C)C)NC(=O)[C@H](CCCNC(=N)N)NC(=O)[C@H](CC(N)=O)NC(=O)[C@H](CC(C)C)NC1=O [SEQ. ID. NO. 33] (HELM PEPTIDE1{[ac].[dR].C.M.L.N.R.V.Y.A.P.C.[am]}$PEPTIDE1,PEPTIDE1,3:R3-12:R3$$$V2.0) | – | 109 | – | 260 | – | – | – | > 10000 | 17 | – | about 50 fold | 5
CSCC[C@@H]1NC(=O)[C@@H](NC(=O)[C@H](CCCNC(=N)N)NC(C)=O)CSSC[C@@H](C(N)=O)NC(=O)[C@@H]2CCCN2C(=O)[C@H](CCCNC(=N)N)NC(=O)[C@H](Cc2ccc(O)cc2)NC(=O)[C@H](C(C)C)NC(=O)[C@H](CCCNC(=N)N)NC(=O)[C@H](CCCNC(N)=O)NC(=O)[C@H](CC(C)C)NC1=O [SEQ. ID. NO. 27] | – | 91 | 0.3 | 920 | 42 | – | – | – | 68 | – | – | –
